The source of these data is US10905897B2, “Synergistic treatment methodologies using light therapy” (Neuro-Laser Foundation, Inc., priority 2016, dated 2021).

One data set deals with tau protein. The following applies: transgenic mice overexpressing tau, cited from earlier work.
The test system of the next data set is post-concussive syndrome. As to conditions: double-blind, placebo-controlled; cited from earlier work.
Another data set concerns traumatic brain injury. As to conditions: two large U.S. studies; cited from earlier work.
Data set [1] has as its system nerves involved in polyneuropathy. Put plainly: Polyneuropathy treatment: ketamine administration followed by infrared light, nerve conduction. It is filed as in vivo, human. The following applies: then 810 nm and 980 nm light, 10.5 watts, continuous wave, 10 minutes, about 9-10 treatments. From the text:
In one embodiment, the inventive method can be employed to treat an exemplary case of polyneuropathy. In this example, a neurologist or other medical professional can conduct an EMG study (or other diagnostic procedure) to determine which nerve is involved, locate the distal portion of the nerve and the path through the body. Then, after the appropriate ketamine administration, as part of 910, the operator configures the system. For example, this can be accomplished by setting the wattage to 10.5 watts, setting the wavelengths to 810 nm and 980 nm, specifying continuous wave, setting duration at 10 minutes, and determining total joules to be about 6000. The operator would then activate the applicator over the nerve to be treated. Maintaining proximity and applying active circular techniques, the operator would move the applicator over the area of involvement, tracing the actual nerve or nerves involved. This might entail, for instance, moving from the hip down the leg to the foot, or from the hand up the arm to the shoulder. The active sweeping pattern is maintained throughout, while monitoring the temperature, light, duration and patient as well. The treatment is then reviewed with the patient and follow-up treatments are scheduled (usually approximately 9-10 treatments for this condition). […]

Data set [2] deals with depressive symptoms and suicidal ideation. The following applies: single infusion; cited from earlier work.
The subject of the next data set is depression. Kind of data set: Clinical experience with ketamine treatment for depression. As to conditions: extensive clinical experience.
The subject of the next data set is postconcussive symptoms. The following applies: patients with TBI; cited from earlier work.

As to `[Cl-].[Li+]` [lithium chloride], the resulting blood levels in the data set on tau protein (dietary lithium chloride) is ≤ 0.2 milli-Equivalents per liter. In the data set with tau protein, the “levels of tau protein accumulation upon pathological examination” value is “significantly decreased”. Consider `NC(=O)CN1CCCC1=O` [piracetam, Piracetam], for which the “symptoms of post-concussive syndrome, including headache and vertigo” value with post-concussive syndrome is “improved several symptoms”. Turning to `C[N+](C)(C)CCOP(=O)(O)OP(=O)([O-])OC[C@H]1O[C@@H](n2ccc(N)nc2=O)[C@H](O)[C@@H]1O` [Citicholine], in the data set with traumatic brain injury, the “benefit in TBI” value is “failed to demonstrate significant benefit”. Take `CNC1(c2ccccc2Cl)CCCCC1=O` (centres unmarked) [ketamine]: the “increase in the conduction velocity of the nerves involved” value in data set [1] is reported as 20-30%. For the same compound, the “duration of symptom relief with single infusions” value in data set [2] is 4 to 10 days. Also, the “patients treated for depression who see a favorable clinical response” value in the data set on depression is on record as “approximately 80%”.

For `C[S+](CC[C@H](N)C(=O)O)C[C@H]1O[C@@H](n2cnc3c(N)ncnc32)[C@H](O)[C@@H]1O` (some centres unmarked) [SAMe, S-adenosylmethionine], in the data set with postconcussive symptoms, the “improvement in clinical scores of postconcussive symptoms” value was 77%.
